Measurements as given in ChEMBL document CHEMBL1147298, “An antitumor principle from Suillus granulatus” (1989).
In brackets after ≈: the same amount, converted by molar mass.

How the values were obtained:
Format in all cases: functional
KB = experiment: Cytotoxicity against human KB cells; details: read-out: ID50 (the source's name)
P388 [1] = experiment: Cytotoxicity against mouse P388 cells; details: read-out: ID50 (the source's name)
P388 [2] = experiment: In vivo antitumor activity against mouse P388 cells at 5 mg/kg, ip administered on 1,5 and 9 days relative to control; details: route intraperitoneal
P388 [3] = experiment: In vivo antitumor activity against mouse P388 cells at 10 mg/kg, ip administered on 1,5 and 9 days relative to control; details: route intraperitoneal
[4] = Cytotoxicity against human NSCLC-N6 cells; details: read-out: ID50 (the source's name)

In the case of CC(=O)Oc1ccc(O)c(O)c1C/C=C(\C)CC/C=C(\C)CC/C=C(\C)CCC=C(C)C [TETRAPRENYLPHENOLSUILLIN], the IC50 (KB) is reported as 0.69 µg/mL (≈ 1.57 µM), the IC50 (P388 [1]) is reported as 0.85 µg/mL (≈ 1.93 µM) and the T/C (P388 [2]) is reported as 151%. The T/C (P388 [3]) was 160% and the IC50 [4] was 1.02 µg/mL (≈ 2.31 µM).
CC(=O)Oc1ccc(OC(C)=O)c(OC(C)=O)c1C/C=C(\C)CC/C=C(\C)CC/C=C(\C)CCC=C(C)C showed an IC50 (KB) of 1.8 µg/mL (≈ 3.43 µM).
